How the values were obtained:
[1] = tested on: 5′-biotinylated dsDNA oligomer (DNA, duplex) TGTAATCGTAGGTTGGTCCCATCACCCACC/GGTGGGTGATGGGACCAACCTACGATTACA; test: SPR biosensor kinetics, immobilised DNA; details: PBS buffer; monoexponential fit, single site
[2] = target: 20S proteasome trypsin-like activity (Homo sapiens, UniProt Q99436); test: Isolated 20S proteasome, trypsin-like activity (Z-Leu-Ser-Thr-Arg-AMC); type: biochemical; details: for IC50: 0–100 μM, 1 h, 37 °C, pH 8.0
Method: (§1) Proteasome inhibition by the compounds was evaluated with respect to three major activities of the 20S proteasome, namely, chymotrypsin-like, trypsin-like, and caspase-like activities.
(§2) The effect of the compounds on the activity of the isolated 20S proteasome was tested using specific synthetic fluorogenic peptide substrates (Suc-Leu-Leu-Val-Tyr-AMC, Z-Leu-Ser-Thr-Arg-AMC, and Z-Leu-Leu-Glu-AMC for chymotrypsin-like, trypsin-like, and peptidyl glutamyl peptide hydrolase activity, respectively) as reported elsewhere. Briefly, individual mixtures consisting of the compounds (0–100 μM), 1 μg of isolated 20S proteasome, the specific substrate, and 50 mM Tris–HCl pH 8.0 up to a final volume of 100 μL were incubated at 37 °C, and after 1 h, the fluorescence measurements of the hydrolyzed AMC were recorded on a SpectraMax Gemini XPS microplate reader (λexc = 365 nm, λem = 449 nm).

[3] = tested on: HEK293T human embryonic kidney cells; test: MTT cytotoxicity assay, HEK293T cells; type: cell-based; details: 72 h exposure, mean ± SD of three experiments
Method: (§3) The stability of [1]-Cl-[4]-Cl was evaluated in aqueous phosphate-buffered solution (PBS, pH 7.4) using UV–visible spectroscopy. […] The cytotoxicity of the compounds was measured according to a standard MTT assay against human breast cancer (MCF7 and MCF7CR) and ovarian cancer (A2780 and A2780cis) cell lines, and also nontumorigenic MCF10A and human embryonic kidney HEK293T cells (Table ).
(§4) All cell lines were grown in a humidified 5% CO2 environment at 37 °C in dedicated media. Growth media comprised minimum essential medium (MEM) supplemented with 10% FBS, 1% sodium pyruvate, antibiotics, and antimycotic agents for MCF7. MCF10A cells were cultured in a DMEM/F12 Ham’s mixture supplemented with 5% equine serum, 20 ng/mL EGF, 10 μg/mL insulin, […], antibiotics, and antimycotics. MCF7-CR cells were grown in minimum essential medium (MEM), 10% FBS supplemented with 0.1 mg/mL cisplatin, sodium pyruvate, antibiotics, and antimycotics. A2780 and A2780cis cells were cultured in RPMI 1640 GlutaMAX, and HEK293T cells were cultured in DMEM GlutaMAX medium containing 10% heat-inactivated FBS and antibiotics. The effect exerted on cell viability by the compounds was determined using the 3-(4,5-dimethylthiazol-2-yl)-2,5-diphenyltetrazolium bromide (MTT) assay. After individual treatments with 0–100 μM of the compound for 72 h, MTT was added to the culture media at a final concentration of 0.5 mg/mL and incubated for 2 h at 37 °C. Cisplatin was used as a positive control. The medium was replaced with 100 μL of DMSO, and after 10 min, the optical density was recorded at 550 nm on a microplate reader. At least six cultures were used for each data point. Chemicals (Merck-Sigma, Milan, Italy) and plasticware (Corning, Milan, Italy) were cell culture grade.

[4] = tested on: A2780cis cisplatin-resistant ovarian cancer cells; test: MTT cytotoxicity assay, A2780cis cells; type: cell-based, human; details: 72 h exposure, mean ± SD of three experiments
Method: as §3, §4

p62 = test: Western blot quantification of p62 in MCF7 cells; type: cell-based, human; details: 10 μM, 24 h
Method: Since no significant correlation emerged among cytotoxicity, DNA binding affinity, and proteasome inhibition, the effects of the treatment on the expression levels of p62 were evaluated. p62 is a multifunctional binding protein that is involved in signaling pathways of many cellular activities, including autophagy, whose abnormal expression is associated with malignancies, breast cancer in particular. […] This effect was more evident for the free ligand, in agreement with its higher cytotoxicity to breast cancer cells compared with that of the corresponding ruthenium complex (Figure ).
4 Representative autoradiographs (upper panel) and densitometric analyses (lower panel) of p62 levels in MCF7 cells treated with 10 μM of HZPbdcurc and [3]-Cl for 24 h (*p < 0.01 compared with the control; #p < 0.01 compared with [3]-Cl).
Semiquantitative analysis of p62 was performed by Western blotting upon individual 24 h treatments of MCF-7 cells with 10 μM of HZPbdcurc or [Ru(p-cym)(HZPbdcurc)-Cl]-Cl. Treated cells were lysed, and 15 μg of total protein was electrophoresed on 12% SDS-PAGE, then protein bands were electroblotted onto PVDF membranes (Millipore–Milan, Italy). After incubation with anti-p62 monoclonal antibody (Merck Sigma–Milan, Italy), the bands were immunodetected on a ChemiDoc MP imaging system (Bio-Rad - Milan, Italy). […] Western blot results were analyzed using Fiji software.

[5] = target: 20S proteasome chymotrypsin-like activity (Homo sapiens, UniProt P28074); test: Isolated 20S proteasome, chymotrypsin-like activity (Suc-Leu-Leu-Val-Tyr-AMC); type: biochemical; details: 0–100 μM, 1 h, 37 °C, pH 8.0
Method: as §1, §2

[6] = tested on: MCF10A nontumorigenic cells; test: MTT cytotoxicity assay, MCF10A cells; type: cell-based, human; details: 72 h exposure, mean ± SD of three experiments
Method: as §3, §4

[7] = tested on: MCF7-CR cisplatin-resistant breast cancer cells; test: MTT cytotoxicity assay, MCF7CR cells; type: cell-based, human; details: 72 h exposure, mean ± SD of three experiments
Method: as §3, §4

[8] = tested on: MCF7 human breast adenocarcinoma cells; test: MTT cytotoxicity assay, MCF7 cells; type: cell-based; details: for IC50: MTT, 72 h exposure, mean ± SD of three experiments; for SI MCF7 MCF10A: selectivity index, values equal IC50 MCF10A / IC50 MCF7
Method: as §3, §4

dsDNA oligomer = test: SPR biosensor binding to surface-anchored dsDNA oligomer; details: surface-blocked DNA oligomer; for Kd: equilibrium dissociation constant
Method: The DNA binding ability of curcuminoid ligands and their complexes was evaluated by using a Surface plasmon resonance (SPR) biosensor. The monoexponential nature of binding kinetics for all the compounds is consistent with the presence of a single high-affinity site on DNA (Figure ).
The binding kinetics/affinities of the molecules of interest for DNA were studied according to a previously described biosensor-based method. Briefly, streptavidin was anchored to a carboxylate surface via EDC/NHS chemistry, and 5′-biotinylated dsDNA oligomer (sequence: 3′-[…]-5′) was coupled to surface-blocked streptavidin. Compounds were independently added to the DNA-coated surface at different concentrations, each time following binding kinetics up to equilibrium. PBS buffer was used for both the dissociation and the regeneration steps. Experimental data were fitted to both mono- and biexponential models, and the validity of each model was assessed by a standard F-test procedure. The binding sites on DNA were mapped according to independent competitive binding assays individually using a minor groove binder (GelRed) and a major groove binder (methyl green), respectively. Briefly, GelRed displacement was monitored by comparing the emission spectra of solutions containing different concentrations of curcuminoid-like ligands/complexes (0–100 μM), 20 μM DNA, and GelRed (10 μM) in 10 mM phosphate buffer, pH 7.4. Similarly, methyl green displacement assay was performed by monitoring the absorbance at 630 nm upon addition of candidate competitors (0–100 μM), 100 μM DNA, and methyl green (10 μM) in 50 mM Tris–HCl buffer and 7.5 mM MgSO4, pH 7.5.

[9] = target: 20S proteasome PGPH (caspase-like) activity (Homo sapiens, UniProt P28072); test: Isolated 20S proteasome, peptidyl glutamyl peptide hydrolase (caspase-like) activity (Z-Leu-Leu-Glu-AMC); type: biochemical; details: 0–100 μM, 1 h, 37 °C, pH 8.0
Method: as §1, §2

[10] = tested on: A2780 human ovarian carcinoma cells; test: MTT cytotoxicity assay, A2780 cells; type: cell-based; details: for IC50: MTT, 72 h exposure, mean ± SD of three experiments; for SI A2780 HEK293T: selectivity index, values equal IC50 HEK293T / IC50 A2780
Method: as §3, §4

[11] = Solubility in water (qualitative); type: physicochemical

| SMILES | KD [1] | IC50 [2] | IC50 [5] | kass (dsDNA oligomer) | kdiss (dsDNA oligomer) | Kd (dsDNA oligomer) | IC50 [9] | SI A2780 HEK293T [10] | IC50 [3] | IC50 [4] | solubility in water [11] | IC50 [7] | IC50 [8] | IC50 [10] | further results |
| --- | --- | --- | --- | --- | --- | --- | --- | --- | --- | --- | --- | --- | --- | --- | --- |
| Oc1ccc(/C=C/c2cc(/C=C/c3ccc(O)cc3)n(-c3ccccn3)n2)cc1 | 17.0 ± 7.3 µM | – | – | – | – | – | – | – | – | – | – | – | – | – | – |
| Oc1ccc(/C=C/c2cc(/C=C/c3ccc(O)cc3)n(-c3ccccn3)n2)cc1 [HZPbdcurc, 4,4′-((1E,1′E)-(1-(pyridin-2-yl)-1H-pyrazole-3,5-diyl)bis(ethene-2,1-diyl))diphenol] | – | > 100 µM | > 100 µM | 1808 ± 740 M^–1s^–1 | 0.031 ± 0.004 s^–1 | 17 ± 7.3 µM | > 100 µM | 2.13 | – | – | – | – | – | – | IC50 ([3]; Homo sapiens, HEK-293T): 17 ± 0.9 µM; IC50 ([4]; Homo sapiens, A2780cis): 11.1 ± 2.9 µM; p62 levels (p62): an increase in the levels of p62 was observed; IC50 ([6]; Homo sapiens, MCF-10A): 9.7 ± 6.5 µM; IC50 ([7]; Homo sapiens): 25.9 ± 11 µM; IC50 ([8]; Homo sapiens, MCF7): 35.1 ± 3 µM; SI MCF7 MCF10A [8]: 0.28; IC50 ([10]; Homo sapiens, A2780): 8 ± 1.2 µM |
| COc1cc(/C=C/c2cc(/C=C/c3ccc(O)c(OC)c3)n(-c3ccccn3)n2)ccc1O.Cc1ccc(C(C)C)cc1.[Cl-].[Cl][Ru+] [[1]Cl, [Ru(p-cym)(HZPcurc)Cl]Cl] | – | 63 ± 7 µM | > 100 µM | 32082 ± 773 M^–1s^–1 | 0.009 ± 0.004 s^–1 | 0.29 ± 0.14 µM | > 100 µM | 5.43 | 25 ± 1 µM | 6.6 ± 0.9 µM | soluble in polar solvents, including H2O | 41 ± 10 µM | 49.2 ± 5 µM | 4.6 ± 0.3 µM | inhibition of the trypsin-like activity (in words) [2]: inhibition of the trypsin-like activity; IC50 [6]: 31.7 ± 10 µM; SI MCF7 MCF10A [8]: 0.64 |
| COc1cc(/C=C/c2cc(/C=C/c3ccc(O)c(OC)c3)n(-c3ccccn3)n2)ccc1O [HZPcurc, 4,4′-((1E,1′E)-(1-(pyridin-2-yl)-1H-pyrazole-3,5-diyl)bis(ethene-2,1-diyl))bis(2-methoxyphenol)] | – | > 100 µM | > 100 µM | 2994 ± 1142 M^–1s^–1 | 0.013 ± 0.009 s^–1 | 4.5 ± 2.7 µM | > 100 µM | 3.10 | – | – | insoluble in H2O | – | – | – | IC50 ([3]; Homo sapiens, HEK-293T): 16.4 ± 0.6 µM; IC50 ([4]; Homo sapiens, A2780cis): 6.7 ± 0.6 µM; IC50 ([6]; Homo sapiens, MCF-10A): 7 ± 4.5 µM; IC50 ([7]; Homo sapiens): 17.7 ± 3.6 µM; IC50 ([8]; Homo sapiens, MCF7): 23 ± 6 µM; SI MCF7 MCF10A [8]: 0.30; IC50 ([10]; Homo sapiens, A2780): 5.3 ± 0.4 µM |
| Cc1ccc(C(C)C)cc1.Oc1ccc(/C=C/c2cc(/C=C/c3ccc(O)cc3)n(-c3ccccn3)n2)cc1.[Cl-].[Cl][Os+] [[4]Cl, [Os(p-cym)(HZPbdcurc)Cl]Cl] | – | 61 ± 44 µM | 98 ± 50 µM | 266 ± 102 M^–1s^–1 | 0.010 ± 0.002 s^–1 | 39.2 ± 17 µM | > 100 µM | 13.33 | 32 ± 2 µM | 5.4 ± 0.3 µM | partly soluble in H2O | > 100 µM | > 100 µM | 2.4 ± 0.4 µM | inhibition of the trypsin-like activity (in words) [2]: inhibition of the trypsin-like activity; IC50 [6]: 25.8 ± 10 µM |
| COc1cc(/C=C/c2cc(/C=C/c3ccc(O)c(OC)c3)n(-c3ccccn3)n2)ccc1O.Cc1ccc(C(C)C)cc1.[Cl-].[Os+2] | 4.2 ± 1.8 µM | – | – | – | – | – | – | – | – | – | – | – | – | – | – |
| Cc1ccc(C(C)C)cc1.Oc1ccc(/C=C/c2cc(/C=C/c3ccc(O)cc3)n(-c3ccccn3)n2)cc1.[Cl-].[Ru+2] | 2.2 ± 1.5 µM | – | – | – | – | – | – | – | – | – | – | – | – | – | – |
| N.N.[Cl][Pt][Cl] [Cisplatin, reference compound] | – | – | – | – | – | – | – | – | 2.8 ± 0.5 µM | 7 ± 1 µM | – | 49.1 ± 7 µM | 4.2 ± 2.3 µM | 0.25 ± 0.02 µM | – |
| COc1cc(/C=C/c2cc(/C=C/c3ccc(O)c(OC)c3)n(-c3ccccn3)n2)ccc1O.Cc1ccc(C(C)C)cc1.[Cl-].[Cl][Os+] [[2]Cl, [Os(p-cym)(HZPcurc)Cl]Cl] | – | 51 ± 13 µM | 84 ± 60 µM | 1156 ± 179 M^–1s^–1 | 0.005 ± 0.002 s^–1 | 4.2 ± 1.8 µM | > 100 µM | 3.97 | 25 ± 8 µM | 12.1 ± 0.6 µM | completely soluble | > 100 µM | > 100 µM | 6.3 ± 0.5 µM | inhibition of the trypsin-like activity (in words) [2]: inhibition of the trypsin-like activity; IC50 [6]: 25.6 ± 15 µM |
| Cc1ccc(C(C)C)cc1.Oc1ccc(/C=C/c2cc(/C=C/c3ccc(O)cc3)n(-c3ccccn3)n2)cc1.[Cl-].[Os+2] | 39.2 ± 17.0 µM | – | – | – | – | – | – | – | – | – | – | – | – | – | – |
| COc1cc(/C=C/c2cc(/C=C/c3ccc(O)c(OC)c3)n(-c3ccccn3)n2)ccc1O | 4.5 ± 2.7 µM | – | – | – | – | – | – | – | – | – | – | – | – | – | – |
| COc1cc(/C=C/c2cc(/C=C/c3ccc(O)c(OC)c3)n(-c3ccccn3)n2)ccc1O.Cc1ccc(C(C)C)cc1.[Cl-].[Ru+2] | 0.29 ± 0.14 µM | – | – | – | – | – | – | – | – | – | – | – | – | – | – |
